Test results: patent US8536120B2 (The Administrators of The Tulane Educational Fund, priority 2006, dated 2013)
Where no end group is shown, it is not given here. [ ]: non-standard residue; d: D form. d2Nal = N[C@H](Cc1ccc2ccccc2c1)C(=O)O

Key:
[1] = target: Ghrelin/GHRP/GHS Receptor (Rattus norvegicus, UniProt O08725); experiment: In vitro pituitary incubation method: GH release from isolated pituitary glands, peptide alone or plus stimulator; assay type: cell-based; design: from cell culture of pituitary cells; endogenous in cells; host or cells: dispersed primary rat anterior pituitary cells, 4 days in culture; conditions: Table 12; Stimulator *S = Tyr-DTrp-Ala-Trp-Dphe-NH2 alone 0.3 μg/ml
Sequence of Ghrelin/GHRP/GHS Receptor (O08725 whole entry): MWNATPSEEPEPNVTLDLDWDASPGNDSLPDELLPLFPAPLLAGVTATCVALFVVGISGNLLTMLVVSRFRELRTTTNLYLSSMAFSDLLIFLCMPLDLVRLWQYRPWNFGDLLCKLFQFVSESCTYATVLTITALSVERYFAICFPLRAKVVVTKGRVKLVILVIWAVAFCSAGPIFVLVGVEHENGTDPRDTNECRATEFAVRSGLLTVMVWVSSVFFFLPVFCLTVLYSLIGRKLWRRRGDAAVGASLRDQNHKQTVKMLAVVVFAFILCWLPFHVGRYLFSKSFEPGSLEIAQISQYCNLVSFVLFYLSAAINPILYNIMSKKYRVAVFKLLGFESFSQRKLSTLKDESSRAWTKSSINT
Method: The peptides were synthesized by the solid phase method and purified by HPLC. GH was determined by Radioimmunoassay (RIA).
Hormonal activities were obtained from in vitro studies using pituitaries of 20 day old CD-1 strain Sprague Dawley female rats. Two pituitaries were incubated for a total of 4-6 hours. Medium was removed each hour for RIA of GH level and fresh medium was added again. After two one hour preincubation periods (P1-P2), the vehicle/peptides were added to two one hour incubations (I3-I4). Peptide activity was calculated as the change in the hormonal level (delta) between I3+I4 and P2. For antagonist activity, the incubation was continued for 2 additional hours (I5-I6) where both the peptide and a stimulator of GH secretion was added and the antagonist activity was calculated as the change in the hormonal level (delta) between I5+I6 and P2. The peptides were assayed in triplicate and the hormone was assayed in duplicate. Each value recorded represents the mean of 6. The GH RIA reagents were distributed by the NIH. Control data was collected from isolated pituitary glands treated with only the corresponding vehicle in the absence of peptide or stimulator. Control stimulated data was collected from isolated pituitary glands treated with stimulator alone in the absence of any peptide.

ghrelin receptor [2] = target: T1, ghrelin receptor (Rattus norvegicus, UniProt O08725); experiment: Ghrelin-stimulated food intake in rats after icv GHS-A; assay type: in vivo; conditions: 500 ng ghrelin icv, vs normal saline
T1 construct: from tissue; host or cells: whole animal (rat), i.c.v. or i.v. dosing
T1 sequence (O08725 whole entry): as above
Method: (§1) Adult male Sprague Dawley rats (225-260 g) were purchased from Charles River Canada (St. Constant, Canada) and individually housed on a 12-h light, 12-h dark cycle (lights on, 0600-1800 h) in a temperature (22±1° C.)—and humidity-controlled room. Purina rat chow (Ralston Purina Co., St. Louis, Mo.) and tap water were available ad libitum.
(§2) Chronic intracerebroventricular (i.c.v.) and intracardiac venous cannulas were implanted under sodium pentobarbital (50 mg/kg, i.p.) anesthesia using previously described techniques in (2) and (11). The placement of the icv cannulae was verified by both a positive drinking response to i.c.v. carbachol (100 ng/10 μl) injection on the day after surgery and methylene blue dye at the time of death. After surgery, the rats were placed directly in isolation test chambers with food and H2O freely available until body weight returned to preoperative levels (usually within 5-7 d). During this time the rats were handled daily to minimize any stress associated with handling on the day of the experiment. On the test day, food was removed 1.5 h before the start of sampling and was returned at the end.
Food intake was monitored on an hourly basis as described above. In this experiment, food was removed 1.5 h before the start of the test.

ghrelin receptor [3] = target: T1, ghrelin receptor; experiment: Spontaneous food intake in overnight-fasted rats after icv GHS-A; assay type: in vivo; conditions: 5 μg GHS-A icv; overnight-fasted animals; P<0.004 vs normal saline
Method: as §1
Chronic intracerebroventricular (i.c.v.) and intracardiac venous cannulas were implanted under sodium pentobarbital (50 mg/kg, i.p.) anesthesia using previously described techniques in (2) and (11). […]
The effects of the GHS-A on both spontaneous and ghrelin-induced food intake and body weight gain were investigated. […] Food intake was monitored on an hourly basis for 5 h after the initial injection (until 1600 h) and subsequently overnight (1600-0900 h next morning). A measured amount of rat chow pellets was placed in the cage every hour. Spillage was collected by placement of a diaper under the rat cages, and total food consumed for each period was calculated by subtracting uneaten food plus spillage from total given. Body weights were recorded daily at 0900 h. The latency to the onset of the first meal after the injection and the duration of that meal were also monitored.

ghrelin receptor [4] = target: T1, ghrelin receptor; experiment: Spontaneous pulsatile GH secretion in free-moving rats after icv GHS-A; assay type: in vivo; conditions: 5 μg GHS-A icv; vs normal saline; P<0.01 or less
Method: as §1, §2
These time points were chosen because they correspond closely to the time of onset of the spontaneous GH secretory episodes, as previously documented in our laboratory (2, 4). […]

ghrelin receptor [5] = target: T1, ghrelin receptor; experiment: Ghrelin-induced GH release in free-moving adult male rats after GHS-A pretreatment (icv or iv); assay type: in vivo; conditions: vs normal saline; for Plasma GH response to ghrelin i.c.v.: 5 μg antagonist icv 15 min before 500 ng ghrelin icv
Method: as §1, §2
The efficacy of GHS-A to antagonize ghrelin's stimulatory action on GH at both central and peripheral sites was examined. […] (500 ng). Both the human ghrelin peptide (provided by Dr. K. Chang, Phoenix Pharmaceuticals, Inc., Belmont, Calif.) and the GHS-A were diluted in normal saline just before use. Blood samples (0.35 ml) were withdrawn every 15 min over a 6-h sampling period (1000-1600 h) from all animals. […] All blood samples were immediately centrifuged, and plasma was separated and stored at −20° C. for subsequent assay of GH. To avoid hemodynamic disturbance, the red blood cells were resuspended in normal saline and returned to the animal after removal of the next blood sample.
Blood samples were withdrawn from 1000-1600 h, as described above.

Substance | Stimulated Control GH release [1] [ng/mL] | Cumulative food intake after ghrelin (ghrelin receptor [2]; 5 μg GHS-A icv) | Ghrelin-stimulated food intake in the first hour after injections (ghrelin receptor [2]; 5 μg antagonist icv, P<0.02 or less) | Spontaneous food intake in the first hour after injection (ghrelin receptor [3]) | 1-h GH AUC's of spontaneous GH secretory episodes at 1100 h and 1400 h, and overall 6-h GH AUC (ghrelin receptor [4]) | Plasma GH response to ghrelin i.c.v. (ghrelin receptor [5]) | Plasma GH response to ghrelin i.c.v. (ghrelin receptor [5]; listed as GHS-A) | Plasma GH response to ghrelin i.v. (ghrelin receptor [5]; 250 μg antagonist iv 15 min before 5 μg ghrelin iv, listed as GHS-A) | Reduction of GH AUC following i.c.v. ghrelin (ghrelin receptor [5]; GHS-A icv pretreatment, 500 ng ghrelin icv, P<0.0003 or less) [fold] | Reduction of GH AUC following i.v. ghrelin (ghrelin receptor [5]; GHS-A iv pretreatment, 5 μg ghrelin iv, P<0.0003 or less) [fold]
Tyr-DTrp-Ala-Trp-Dphe-NH2 | 2218 ± 194 |  |  |  |  |  |  |  |  | 
H[d2Nal][dK]W[dF]K-NH2 |  | significantly suppressed for up to 5 h | significantly inhibited | significantly inhibited | significantly reduced | virtually obliterated the GH response to ghrelin | abolished the stimulatory action of ghrelin on GH release | strongly blocked ghrelin's ability to release GH | 15 | 5
